# Test results reported in patent US20260130917A1, “ANTIVIRAL COMPOSITION FOR CORONAVIRUS OR INFLUENZA VIRUS, USING NATURAL PRODUCTS, AND USE THEREOF” (priority 2022, published 2026).
# System: SARS-CoV-2 variants: Ancestral (lineage A), Alpha (B.1.1.7), Beta (B.1.351), Gamma (P.1), Delta (B.1.617.2), Omicron (B.1.1.529)
# Type: cell-based
smiles,measurement,value
"CCCCCOc1cccc(/C=C/C23N=C(O)CCN2c2ccccc2C3(C)C)c1 (stereo not shown) [MolPort-005-980-235, 10,10-dimethyl-10a-[(1E)-2-[3-(pentyloxy)phenyl]ethenyl]-3H,4H,10H,10aH-pyrimido[1,2-a]indol-2-ol]",antiviral activity against SARS-CoV-2 variants,"had antiviral activity against all verified SARS-CoV-2 variants, including Omicron, in a dose-dependent manner"
